Target: T1, MC5R (Homo sapiens, UniProt P33032)
T1 construct: purchased Promega (in-house HiBiT-GPCR construct library, NanoBRET)
Experiment: NanoBRET screen HiBiT-MC5R in HEK293
Format: binding
Protocol: Each tracer candidate was screened across the entire library of HiBiT-GPCR constructs using NanoBRET as the detection modality. As depicted in Figure 4A, the specificity of interactions was evaluated through decrease in BRET due to competitive displacement of a bound tracer by excess parental compound. Each tracer was analyzed for binding to each HiBiT-GPCR fusion in the absence and in the presence of competing parental compound. Briefly, HEK293 cells were transfected with HiBiT-GPCR constructs diluted into promoterless DNA to reduce expression and maximize translocation to the cell surface. Each tracer candidate was then screened at concentrations of 1 μM and 0.1 μM across cells expressing these fusions. Cells were treated for 1.5 h with tracer either alone or in the presence of 20 μM competing parental compound (i.e., control). BRET was measured upon addition of purified LgBiT and subsequent complementation with HiBiT genetically fused to a GPCR. The specificity of interactions was assessed through a decrease in BRET signal due to competitive displacement of the bound tracer. To further gauge the robustness of these interactions, the fold response over the control (i.e., BRETtracer/BRETcontrol) was calculated. We chose a 1.5-fold response, which translates to ≥7-fold signal over noise as the minimal threshold required to score an interaction as positive.
HiBiT-GPCR DNA constructs were diluted in 10 mM Tris pH 8 to a final concentration of 0.01 μg/μL, arrayed in 96-well plates and stored at −20 °C. For transfection, HEK293 cells were suspended in Opti-MEM (without phenol red) supplemented with 2% fetal bovine serum (Seradigm) and 100 units/mL penicillin–streptomycin (Gibco) at a final concentration of 220,000 cells/mL and dispensed into white 96-well plates at 90 μL/well. Subsequent transfections and screens were carried using an Agilent Bravo Automated Liquid Handling Platform. First, the 96-well HiBiT DNA arrays were diluted 25-fold in Opti-MEM (without serum or phenol red) to a final concentration of 0.0004 μg/μL and 20 μL of the diluted DNAs were transferred into new 96-well plates. Next, promoterless carrier DNA (1 μg/μL) was diluted 25-fold (0.04 μg/μL) and then dispensed into the diluted arrays at 20 μL/well. Following brief mixing, Viafect transfection reagent (Promega) diluted 16-fold into Opti-MEM was dispensed into the plates at 40 μL/well. After mixing by pipetting, plates were incubated for 10 min on the pipetting station deck. The DNA-transfection reagent complexes were then added to plates containing cells. To facilitate the screen, 10 μL of DNA-transfection reagent complexes were added in duplicates to the top 4 and bottom 4 rows, resulting in two identical 48-well arrays per plate. Plates with transfected cells were incubated for 18–20 h at 37 °C/5% CO2. A screen of each tracer across the entire library using two different concentrations requires duplicate plates of transfected cells. Depending on the number of tracers being screened, transfections can be scaled up using the same ratios. The next day, for each tracer, four 20× screening solutions in tracer dilution buffer (Promega) were prepared: two duplicates at final concentration of 20 μM and two duplicates at a final concentration of 2 μM. […] The four resulting solutions were diluted 4-fold in Opti-MEM without serum or phenol red to generate 5× solutions (5 µM and 0.5 µM tracer +/− 100 μM competing compound). To screen the library, a BioTek MultiFlo FX liquid dispenser was used to dispense 22.5 µL of tracer solution to the top 4 rows and 22.5 µL tracer + competing compound solution to the 4 bottom rows. Plates were briefly mixed on an orbital shaker and incubated for 1.5 h at room temperature. […] Plates were briefly mixed on an orbital shaker and incubated for 15 min to allow complementation.

T1 sequence (P33032 whole entry): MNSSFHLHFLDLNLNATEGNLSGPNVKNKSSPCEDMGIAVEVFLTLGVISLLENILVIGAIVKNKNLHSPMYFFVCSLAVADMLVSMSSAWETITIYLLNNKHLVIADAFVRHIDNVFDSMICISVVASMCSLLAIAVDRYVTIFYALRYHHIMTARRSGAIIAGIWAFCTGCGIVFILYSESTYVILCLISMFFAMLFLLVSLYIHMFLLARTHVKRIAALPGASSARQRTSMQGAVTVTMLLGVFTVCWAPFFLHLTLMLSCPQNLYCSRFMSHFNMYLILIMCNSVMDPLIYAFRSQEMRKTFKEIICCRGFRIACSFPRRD

Structure (SMILES)	NanoBRET Fold Response (MC5R, tracer 0.1μM)	NanoBRET Fold Response (MC5R, tracer 1μM)	other results
CCOC(=O)c1cc(C#N)c(N2CCC(C(=O)NS(=O)(=O)Cc3ccccc3/C=C/C(=O)NCCNC(=O)CCc3ccc4n3[B-](F)(F)[N+]3=C(c5ccc[nH]5)C=CC3=C4)CC2)nc1C [AZD1283-1-NB590]			NanoBRET Fold Response (MC5R, 1μM): 0.99
N#CN=C(NCCCOc1cccc(CN2CCCCC2)c1)NCCNC(=O)CCOCCOCCOCCOCCNC(=O)CCc1ccc2n1[B-](F)(F)[N+]1=C(c3ccc[nH]3)C=CC1=C2 [Aminopotentidine-2-NB590]	1.01	0.94	
CN(C)CCC=C1c2ccccc2CCc2ccc(C(=O)NCCNC(=O)CCOCCOCCOCCOCCNC(=O)CCc3ccc4n3[B-](F)(F)[N+]3=C(c5ccc[nH]5)C=CC3=C4)cc21 [Amitriptyline-b-2-NB590]			NanoBRET Fold Response (tracer at 0.1μM): 1.02; NanoBRET Fold Response (tracer at 1μM): 1.00
COc1ccc2c(n1)c(CCNC(C)=O)cn2CCNC(=O)CCc1ccc2n1[B-](F)(F)[N+]1=C(c3ccc[nH]3)C=CC1=C2 [Azamelatonin-1-NB590]			NanoBRET Fold Response (0.1μM tracer): 1.01; NanoBRET Fold Response (1μM tracer): 1.04
COc1ccc2[nH]c(-c3ccc(CNC(=O)CCOCCOCCOCCOCCNC(=O)CCc4ccc5n4[B-](F)(F)[N+]4=C(c6ccc[nH]6)C=CC4=C5)cc3)c(CCNC(C)=O)c2n1 [AzomelatoninICO9-2-NB590]			NanoBRET Fold Response (0.1μM tracer): 0.94; NanoBRET Fold Response (1μM tracer): 0.97
O=C(CCOCCOCCOCCOCCNC(=O)CCc1ccc2n1[B-](F)(F)[N+]1=C(c3ccc[nH]3)C=CC1=C2)NCCCN1CCN(C2=Nc3cc(Cl)ccc3Nc3ccccc32)CC1 [Clozapine-a-2-NB590]			NanoBRET Fold Response (MC5R, 0.1μM tracer): 1.04
CN1CCN(C2=Nc3cc(Cl)ccc3Nc3ccc(CNC(=O)CCOCCOCCOCCOCCNC(=O)CCc4ccc5n4[B-](F)(F)[N+]4=C(c6ccc[nH]6)C=CC4=C5)cc32)CC1 [Clozapine-b-2-NB590]			NanoBRET Fold Response (MC5R, 0.1μM tracer): 1.05; NanoBRET Fold Response (MC5R, 1μM tracer): 1.04
CN1CCN(C2=Nc3cc(Cl)ccc3N(CC(=O)NCCOCCOCCOCCOCCNC(=O)CCc3ccc4n3[B-](F)(F)[N+]3=C(c5ccc[nH]5)C=CC3=C4)c3ccccc32)CC1 [Clozapine-c-2-NB590]			NanoBRET Fold Response (MC5R, 0.1μM tracer): 1.01; NanoBRET Fold Response (MC5R, 1μM tracer): 1.06
O=C(CCOCCOCCOCCOCCNC(=O)CCc1ccc2n1[B-](F)(F)[N+]1=C(c3ccc[nH]3)C=CC1=C2)NCCCN1CCN(C2=Nc3ccccc3Oc3ccc(Cl)cc32)CC1 [Loxapine-a-2-NB590]	1.04		
COc1ccccc1N1CCN(CCCCN2C(=O)c3ccc(CNC(=O)CCOCCOCCOCCOCCNC(=O)CCc4ccc5n4[B-](F)(F)[N+]4=C(c6ccc[nH]6)C=CC4=C5)cc3C2=O)CC1 [NAN-190-2-NB590]	0.98	1.01	
COc1ccccc1N1CCN(CCCCN2C(=O)c3ccc(CNC(=O)CCOCCNC(=O)c4ccc(CNC(=O)CCc5ccc6n5[B-](F)(F)[N+]5=C(c7ccc[nH]7)C=CC5=C6)cc4)cc3C2=O)CC1 [NAN-190-3-NB590]	0.97	0.96	
O=C(CCc1ccc2n1[B-](F)(F)[N+]1=C(c3ccc[nH]3)C=CC1=C2)NCc1ccc(C(=O)NCCOCCC(=O)N[C@@H]2CC[C@@]3(O)[C@H]4Cc5ccc(O)c6c5[C@@]3(CCN4CC3CC3)[C@H]2O6)cc1 [Naltrexone-3-NB590]		1.04	
Cc1cc2c(s1)Nc1ccccc1N=C2N1CCN(CCCNC(=O)CCOCCOCCOCCOCCNC(=O)CCc2ccc3n2[B-](F)(F)[N+]2=C(c4ccc[nH]4)C=CC2=C3)CC1 [Olanzapine-a-2-NB590]	0.99	1.04	
O=C(CCc1ccc2n1[B-](F)(F)[N+]1=C(c3ccc[nH]3)C=CC1=C2)NCc1ccc(C(=O)NCCOCCOCCNCC(O)COc2cccc3ccccc23)cc1 (stereo not drawn) [Propranolol-3-NB590]			NanoBRET Fold Response (MC5R, 0.1μM): 1.00; NanoBRET Fold Response (MC5R, 1μM): 0.98
O=C(CCc1ccc2n1[B-](F)(F)[N+]1=C(c3ccc[nH]3)C=CC1=C2)NCCOCCOCCNC(=O)OCCOCCN1CCN(C2=Nc3ccccc3Sc3ccccc32)CC1 [Quetiapine-a-2-NB590]	0.97	1.09	
Cc1nc2n(c(=O)c1CCN1CCC(c3noc4cc(F)ccc34)CC1)CCCC2OC(=O)NCCOCCOCCOCCOCCNC(=O)CCc1ccc2n1[B-](F)(F)[N+]1=C(c3ccc[nH]3)C=CC1=C2 (stereo not drawn) [Risperidone-2-NB590]	1.02	1.02	
CC(C)N(CC[C@H](c1ccccc1)c1cc(CCNC(=O)CCOCCOCCOCCOCCNC(=O)CCc2ccc3n2[B-](F)(F)[N+]2=C(c4ccc[nH]4)C=CC2=C3)ccc1O)C(C)C [Tolterodine-2-NB590]		0.91	
CC(C)N(CC[C@H](c1ccccc1)c1cc(CCNC(=O)c2ccc(CNC(=O)CCc3ccc4n3[B-](F)(F)[N+]3=C(c5ccc[nH]5)C=CC3=C4)cc2)ccc1O)C(C)C [Tolterodine-BZ-NB590]	1.02	1.02	
CCCn1c(=O)c2[nH]c(-c3ccc(OCC(=O)NCCNC(=O)CCOCCNC(=O)c4ccc(CNC(=O)CCc5ccc6n5[B-](F)(F)[N+]5=C(c7ccc[nH]7)C=CC5=C6)cc4)cc3)nc2n(CCC)c1=O [XAC-3-NB590]	1.02	0.98	

From publication PMC8151276, “An Integrated Approach toward NanoBRET Tracers for Analysis of GPCR Ligand Engagement” (Molecules, 2021)
